Laboratory results as given in ChEMBL document CHEMBL3272271, “Folate antagonists. 13. 2,4-Diamino-6-](alpha,alpha,alpha-trifluoro-m-tolyl)thio]quinazoline and related 2,4-diamino-6-[(phenyl- and naphthyl)thio]quinazolines, a unique class of antimetabolites with extraordinary antimalarial and antibacterial effects” (J Med Chem, 1978).
≈ marks a conversion by molar mass, not a printed value. Calls of active or inactive are those of the source. The rule behind the calls is not given here.

What was measured:
Plasmodium falciparum [1] = assay: Antimalarial activity against pyrimethamine-sensitive Plasmodium falciparum Vietnam Oak Knoll infected in Aotus trivirgatus owl monkey model assessed as cure from parasite infection at 0.6 mg/kg, po qd for 7 days relative to control; format: functional
Plasmodium gallinaceum [2] = assay: Antimalarial activity against sporozoite-induced Plasmodium gallinaceum infected in white leghorn chicken assessed as increase in mean survival days of host at 80 mg/kg, sc administered 72 hrs after infection relative to control; format: functional; details: route subcutaneous
Plasmodium falciparum [3] = assay: Antimalarial activity against pyrimethamine-sensitive Plasmodium falciparum Vietnam Oak Knoll infected in Aotus trivirgatus owl monkey model assessed as cure from parasite infection at 0.098 to 1.56 mg/kg, po qd for 7 days relative to control; format: functional; details: dose mg/kg 0.098-1.56
Plasmodium berghei [4] = assay: Antimalarial activity against chloroquine-resistant Plasmodium berghei assessed as drug resistance; format: functional, organism-based
Plasmodium berghei [5] = assay: Antimalarial activity against Plasmodium berghei infected in mouse assessed as increase in mean survival days of host at 2.5 mg/kg, sc administered 72 hrs after infection relative to control; format: functional; details: route subcutaneous
Shigella sonnei = assay: Antibacterial activity against Shigella sonnei C-10 by gradient plate test; format: functional
Plasmodium berghei [6] = assay: Antimalarial activity against Plasmodium berghei infected in mouse assessed as increase in mean survival days of host at 10 mg/kg, sc administered 72 hrs after infection relative to control; format: functional; details: route subcutaneous
Plasmodium gallinaceum [7] = assay: Antimalarial activity against trophozoite-induced Plasmodium gallinaceum infected in white leghorn chicken assessed as disease cure from parasite infection at 320 mg/kg, sc administered 72 hrs after infection; format: functional, organism-based; design: dose 320 mg/kg
Enterococcus faecalis = assay: Antibacterial activity against Streptococcus faecalis MGH-2 by gradient plate test; format: functional
Plasmodium berghei [8] = assay: Antimalarial activity against trophozoite-induced Plasmodium berghei infected in mouse assessed as daily dose required to suppression of 90% parasite infection administered with diet for 6 days; format: functional
Plasmodium gallinaceum [9] = assay: Antimalarial activity against trophozoite-induced Plasmodium gallinaceum infected in white leghorn chicken assessed as increase in mean survival days of host at 80 mg/kg, sc administered 72 hrs after infection relative to control; format: functional; details: route subcutaneous
Plasmodium falciparum [10] = assay: Antimalarial activity against chloroquine-susceptible, pyrimethamine-resistant Plasmodium falciparum Malayan Camp infected in Aotus trivirgatus owl monkey model assessed as cure from parasite infection at 0.39 to 5 mg/kg, po qd for 7 days relative to control; format: functional; details: dose mg/kg 0.39-5
Escherichia coli = assay: Antibacterial activity against Escherichia coli Vogel by gradient plate test; format: functional
Plasmodium gallinaceum [11] = assay: Antimalarial activity against sporozoite-induced Plasmodium gallinaceum infected in white leghorn chicken assessed as disease cure from parasite infection at 160 mg/kg, sc administered 72 hrs after infection; format: functional, organism-based; design: dose 160 mg/kg
Plasmodium berghei [12] = assay: Antimalarial activity against Plasmodium berghei infected in mouse assessed as increase in mean survival days of host at 20 mg/kg, sc administered 72 hrs after infection relative to control; format: functional; details: route subcutaneous
Plasmodium berghei [13] = assay: Antimalarial activity against Plasmodium berghei infected in mouse assessed as disease cure from parasite infection at 320 mg/kg, sc administered 72 hrs after infection; format: functional, organism-based; design: dose 320 mg/kg
Pseudomonas aeruginosa = assay: Antibacterial activity against Pseudomonas aeruginosa 28 by gradient plate test; format: functional
Staphylococcus aureus [14] = assay: Antibacterial activity against Staphylococcus aureus UC-96 by gradient plate test; format: functional
Plasmodium gallinaceum [15] = assay: Antimalarial activity against sporozoite-induced Plasmodium gallinaceum infected in white leghorn chicken assessed as increase in mean survival days of host at 320 mg/kg, sc administered 72 hrs after infection relative to control; format: functional; details: route subcutaneous
Plasmodium berghei [16] = assay: Antimalarial activity against Plasmodium berghei infected in mouse assessed as increase in mean survival days of host at 80 mg/kg, sc administered 72 hrs after infection relative to control; format: functional; details: route subcutaneous
Plasmodium berghei [17] = assay: Antimalarial activity against Plasmodium berghei infected in mouse assessed as disease cure from parasite infection at 80 mg/kg, sc administered 72 hrs after infection; format: functional, organism-based; design: dose 80 mg/kg
Plasmodium berghei [18] = assay: Antimalarial activity against Plasmodium berghei infected in mouse assessed as increase in mean survival days of host at 40 mg/kg, sc administered 72 hrs after infection relative to control; format: functional; details: route subcutaneous
Plasmodium berghei [19] = assay: Antimalarial activity against cycloguanil-resistant Plasmodium berghei assessed as drug resistance; format: functional, organism-based
Plasmodium berghei [20] = assay: Antimalarial activity against Plasmodium berghei infected in mouse assessed as disease cure from parasite infection at 40 mg/kg, sc administered 72 hrs after infection; format: functional, organism-based; design: dose 40 mg/kg
Plasmodium berghei [21] = assay: Antimalarial activity against Plasmodium berghei infected in mouse assessed as disease cure from parasite infection at 160 mg/kg, sc administered 72 hrs after infection; format: functional, organism-based; design: dose 160 mg/kg
Plasmodium gallinaceum [22] = assay: Antimalarial activity against sporozoite-induced Plasmodium gallinaceum infected in white leghorn chicken assessed as disease cure from parasite infection at 80 mg/kg, sc administered 72 hrs after infection; format: functional, organism-based; design: dose 80 mg/kg
Plasmodium berghei [23] = assay: Ratio of quinine hydrochloride SD90 to compound SD90 for trophozoite-induced Plasmodium berghei infected in mouse assessed as daily dose required to suppression of 90% parasite infection administered with diet for 6 days; format: functional
Plasmodium gallinaceum [24] = assay: Antimalarial activity against sporozoite-induced Plasmodium gallinaceum infected in white leghorn chicken assessed as disease cure from parasite infection at 320 mg/kg, sc administered 72 hrs after infection; format: functional, organism-based; design: dose 320 mg/kg
Plasmodium berghei [25] = assay: Antimalarial activity against Plasmodium berghei infected in mouse assessed as increase in mean survival days of host at 5 mg/kg, sc administered 72 hrs after infection relative to control; format: functional; details: route subcutaneous
Staphylococcus aureus [26] = assay: Antibacterial activity against drug-resistant Staphylococcus aureus S18713 by gradient plate test; format: functional
Plasmodium gallinaceum [27] = assay: Antimalarial activity against trophozoite-induced Plasmodium gallinaceum infected in white leghorn chicken assessed as disease cure from parasite infection at 160 mg/kg, sc administered 72 hrs after infection; format: functional, organism-based; design: dose 160 mg/kg
Plasmodium berghei [28] = assay: Antimalarial activity against Plasmodium berghei infected in mouse assessed as disease cure from parasite infection at 640 mg/kg, sc administered 72 hrs after infection; format: functional, organism-based; design: dose 640 mg/kg
Plasmodium falciparum [29] = assay: Antimalarial activity against chloroquine-susceptible, pyrimethamine-resistant Plasmodium falciparum Malayan Camp infected in Aotus trivirgatus owl monkey model assessed as cure from parasite infection at >2.5 mg/kg, po qd for 7 days relative to control; format: functional
Plasmodium berghei [30] = assay: Antimalarial activity against Plasmodium berghei infected in mouse assessed as increase in mean survival days of host at 1.25 mg/kg, sc administered 72 hrs after infection relative to control; format: functional; details: route subcutaneous
Plasmodium gallinaceum [31] = assay: Antimalarial activity against trophozoite-induced Plasmodium gallinaceum infected in white leghorn chicken assessed as increase in mean survival days of host at 160 mg/kg, sc administered 72 hrs after infection relative to control; format: functional; details: route subcutaneous

Nc1nc(N)c2cc(Sc3ccc(Cl)cc3)ccc2n1
Activity (Plasmodium falciparum [1]): >50% | MST (Plasmodium gallinaceum [2]): 17.9 days | Activity (Plasmodium falciparum [3]): >50% | Activity (Plasmodium berghei [4]): inactive | MST (Plasmodium berghei [5]): 2.5 days | MIC (Shigella sonnei): 5 µg/mL (≈ 16.5 µM) | MST (Plasmodium berghei [6]): 9.2 days | Activity (Plasmodium gallinaceum [7]): Active | MIC (Enterococcus faecalis): < 0.25 µg/mL | SD90 (Plasmodium berghei [8]): 0.22 mg/kg/day | MST (Plasmodium gallinaceum [9]): 16.7 days | Activity (Plasmodium falciparum [10]): >50% | MIC (Escherichia coli): 1 µg/mL (≈ 3.3 µM) | Activity (Plasmodium gallinaceum [11]): Active | MST (Plasmodium berghei [12]): 9.2 days | Activity (Plasmodium berghei [13]): Active | MIC (Pseudomonas aeruginosa): > 25 µg/mL | MIC (Staphylococcus aureus [14]): < 0.25 µg/mL | MST (Plasmodium gallinaceum [15]): 1.9 days | MST (Plasmodium berghei [16]): 25.8 days | Activity (Plasmodium berghei [17]): Active | MST (Plasmodium berghei [18]): 13.1 days | Activity (Plasmodium berghei [19]): Active | Activity (Plasmodium berghei [20]): Active | Activity (Plasmodium berghei [21]): Active | Activity (Plasmodium gallinaceum [22]): Active | Ratio (Plasmodium berghei [23]): 340 | Activity (Plasmodium gallinaceum [24]): Active | MST (Plasmodium berghei [25]): 6 days | MIC (Staphylococcus aureus [26]): < 0.25 µg/mL | Activity (Plasmodium gallinaceum [27]): Active | Activity (Plasmodium berghei [28]): Active | Activity (Plasmodium falciparum [29]): >50% | MST (Plasmodium berghei [30]): 1.7 days | MST (Plasmodium gallinaceum [31]): 22.2 days
